Converted amounts (≈) assume the structure as drawn. The source made the active and inactive calls. No cut-off for these calls is given here.
Assays:
[1] = tested on: Mycolicibacterium smegmatis; assay: Antimycobacterial activity against Mycobacterium smegmatis MC2 155 measured after 48 hrs by resazurin dye-based MABA method; assay type: functional; conditions: str. MC2 155, 48 h
[2] = (§1) Inhibition of recombinant Mycobacterium tuberculosis FtsZ polymerization expressed in Escherichia coli assessed as inhibition of protofilament formation by measuring intensity of light scattering in presence of GTP by fluorescence spectrophotometry method
[3] = tested on: Mycobacterium tuberculosis; assay: as §1
[4] = (§2) Inhibition of recombinant Mycobacterium tuberculosis FtsZ GTPase activity expressed in Escherichia coli assessed as inorganic phosphate release measured after 15 mins in presence of GTP using malachite green dye by fluorescence spectrophotometry
[5] = tested on: Mycobacterium tuberculosis; assay: as §2
[6] = tested on: Mycobacterium tuberculosis; assay: Inhibition of Mycobacterium tuberculosis FtsZ polymerization at 50 uM measured after 1 hr by sodium tungstate staining based transmission electron microscopic method
[7] = tested on: Mycobacterium tuberculosis; assay: Inhibition of recombinant Mycobacterium tuberculosis FtsZ GTPase activity expressed in Escherichia coli assessed as inorganic phosphate release at 50 uM measured after 15 mins in presence of GTP using malachite green dye by fluorescence spectrophotometry relative to control
[8] = tested on: Mycolicibacterium smegmatis MC2 155; assay: Inhibition of recombinant Mycobacterium smegmatis MC2 155 FtsZ assessed as increase in cell length at 50 uM measured after 2 hrs by phase contrast microscopy relative to control
[9] = target: T1, Cell division protein FtsZ (Bacillus subtilis (strain 168)) (UniProt P17865); assay: Inhibition of recombinant Bacillus subtilis 168 FtsZ assessed as increase in cell length at 50 uM measured after 2 hrs by phase contrast microscopy relative to control; conditions: Bacillus subtilis subsp. subtilis str. 168
T1 sequence (whole entry): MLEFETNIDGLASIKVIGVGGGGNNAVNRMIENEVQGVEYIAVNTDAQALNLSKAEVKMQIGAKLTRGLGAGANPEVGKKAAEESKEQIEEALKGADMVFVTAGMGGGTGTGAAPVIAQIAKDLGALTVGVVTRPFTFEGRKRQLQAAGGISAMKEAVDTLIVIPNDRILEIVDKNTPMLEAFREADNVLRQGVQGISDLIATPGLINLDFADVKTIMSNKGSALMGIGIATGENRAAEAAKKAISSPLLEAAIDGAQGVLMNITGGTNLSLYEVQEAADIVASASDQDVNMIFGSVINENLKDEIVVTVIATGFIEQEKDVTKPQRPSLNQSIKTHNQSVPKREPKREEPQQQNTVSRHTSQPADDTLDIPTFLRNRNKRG

[10] = tested on: Mycobacterium tuberculosis; assay: Inhibition of recombinant Mycobacterium tuberculosis FtsZ expressed in Escherichia coli assessed as inhibition of protofilament formation by measuring intensity of light scattering at 400 nM up to 300 sec in presence of GTP by fluorescence spectrophotometry
[11] = target: T1, Cell division protein FtsZ (Bacillus subtilis (strain 168)); assay: Binding affinity to Bacillus subtilis 168 FtsZ assessed as effect on Z-ring assembly at 100 uM by FITC-staining based immunofluorescence microscopic method; conditions: Bacillus subtilis subsp. subtilis str. 168
[12] = tested on: Mycobacterium tuberculosis; assay: Displacement of ANS from recombinant Mycobacterium tuberculosis FtsZ expressed in Escherichia coli assessed as red shift at 20 to 140 uM after 30 mins by fluorescence analysis
[13] = Displacement of ANS from recombinant Mycobacterium tuberculosis FtsZ expressed in Escherichia coli by double reciprocal plot analysis
Bacillus subtilis = assay: Induction of ROS generation in Bacillus subtillis 168 assessed as DCF release at 25 to 50 uM measured after 1 hr by DCFH-DA based fluorescence microscopy; assay type: functional; conditions: subsp. subtilis str. 168
[14] = tested on: Mycolicibacterium smegmatis; assay: Induction of ROS generation in Mycobacterium smegmatis MC2 155 assessed as release of DCF at 25 to 50 uM measured after 1 hr by DCFH-DA based fluorescence spectrophotometry; assay type: functional; conditions: str. MC2 155
[15] = tested on: Mycobacterium tuberculosis; assay: Inhibition of recombinant Mycobacterium tuberculosis FtsZ expressed in Escherichia coli assessed as inhibition of protofilament formation by measuring intensity of light scattering at 400 nM after 1000 sec in presence of GTP by fluorescence spectrophotometry

SMILES	MIC [1] [µg/mL]	IC50 ([2]; read-out: IC50) [µM]	IC50 ([4]; read-out: IC50) [µM]	also measured
COC(=O)C1=Cc2cc([N+](=O)[O-])ccc2N(Cc2ccc3c(c2)OCO3)C1	0.95 (≈ 2.58 µM)	77.3	78.5	inhibition [3]: Dose-dependent effect; inhibition [5]: Dose-dependent effect
CC(C)(C)OC(=O)C1=Cc2cc([N+](=O)[O-])ccc2N(Cc2ccccc2)C1	7.5 (≈ 20.5 µM)	> 200	> 200	–
COC(=O)C1=Cc2cc([N+](=O)[O-])ccc2N([C@@H](C)C(=O)OC)C1	–	–	–	IC50 [2]: Nd(Insoluble); IC50 [4]: Nd(Insoluble)
CC(=O)C1=Cc2cc([N+](=O)[O-])ccc2N(Cc2ccccc2)C1	7.5 (≈ 24.3 µM)	> 200	> 200	–
CO[C@H]1/C=C/O[C@@]2(C)Oc3c(C)c(O)c4c(O)c(c(/C=N/N5CCN(C)CC5)c(O)c4c3C2=O)NC(=O)/C(C)=C\C=C\[C@H](C)[C@H](O)[C@@H](C)[C@@H](O)[C@@H](C)[C@H](OC(C)=O)[C@@H]1C [RIFAMPIN]	1.75 (≈ 2.13 µM)	–	–	–
COC(=O)C1=Cc2cc([N+](=O)[O-])ccc2N(Cc2ccccc2)C1	31.5 (≈ 97.1 µM)	184	197	–
COC(=O)C1=Cc2cc([N+](=O)[O-])ccc2N(Cc2ccccn2)C1	62.5 (≈ 192 µM)	194	186	–
CCN(CC)CCN1CC(C(=O)OC)=Cc2cc([N+](=O)[O-])ccc21	7.5 (≈ 22.5 µM)	34	38.3	inhibition [3]: Dose-dependent effect; inhibition [5]: Dose-dependent effect
CCN1CC(C(=O)OC)=Cc2cc([N+](=O)[O-])ccc21	–	–	–	IC50 [2]: Nd(Insoluble); IC50 [4]: Nd(Insoluble)
COCCCN1CC(C(=O)OC)=Cc2cc([N+](=O)[O-])ccc21	1.95 (≈ 6.37 µM)	88.6	89.3	inhibition [3]: Dose-dependent effect; inhibition [5]: Dose-dependent effect
CN[C@@H]1[C@H](O[C@H]2[C@H](O[C@H]3[C@H](O)[C@@H](O)[C@H](N=C(N)N)[C@@H](O)[C@@H]3N=C(N)N)O[C@@H](C)[C@]2(O)C=O)O[C@@H](CO)[C@H](O)[C@H]1O [STREPTOMYCIN]	3 (≈ 5.16 µM)	–	–	–
C[C@H](c1ccccc1)N1CC(C(=O)O)=Cc2cc([N+](=O)[O-])ccc21	7.5 (≈ 23.1 µM)	40.9	25.3	inhibition [3]: Dose-dependent effect; inhibition [5]: Dose-dependent effect
COC(=O)C1=Cc2cc([N+](=O)[O-])c(Cl)cc2N([C@@H](C)c2ccccc2)C1	15 (≈ 40.2 µM)	41.4	40	inhibition [6]: Active
COC(=O)C1=Cc2cc3ccccc3nc2N([C@@H](CO)C(=O)OC)C1	15 (≈ 43.8 µM)	61.5	66	–
CC(C)c1c(O)ccc2c1CC[C@H]1C(C)(C)CCC[C@]21C	–	–	–	inhibition [7]: 73 to 74%
CCN1CC(C(=O)OC)=Cc2cc(F)c(F)cc21	0.9 (≈ 3.55 µM)	210	196	inhibition [3]: Dose-dependent effect; inhibition [5]: Dose-dependent effect
CCCCN1CC(C(=O)OC)=Cc2cc([N+](=O)[O-])ccc21	7.5 (≈ 25.8 µM)	> 200	> 200	–
COC(=O)C1=Cc2cc([N+](=O)[O-])ccc2N(CCO)C1	3.9 (≈ 14 µM)	40.1	41.5	–
O=C(O)C1=Cc2cc([N+](=O)[O-])ccc2N(Cc2ccccc2)C1	31.2 (≈ 101 µM)	95	86.6	–
COc1ccc2cc3[n+](cc2c1OC)CCc1cc2c(cc1-3)OCO2	–	–	–	inhibition [7]: 79 to 80%
COC(=O)C1=Cc2ccccc2N(S(=O)(=O)c2ccc(C)cc2)C1	–	–	–	IC50 [2]: Nd(Insoluble); IC50 [4]: Nd(Insoluble)
COC(=O)C1=Cc2cc([N+](=O)[O-])ccc2N([C@@H](CO)C(=O)OC)C1	7.5 (≈ 22.3 µM)	33.4	39	fold change (FC) [8]: 4; fold change (FC) [9]: 6; inhibition [10]: Active; inhibition [3]: Dose-dependent effect; inhibition [5]: Dose-dependent effect; inhibition [6]: Active; Activity [11]: Active; inhibition [12]: Active; Kd [13]: 8.6 µM; Activity (Bacillus subtilis): Active; Activity [14]: Active; inhibition [15]: Dose-dependent effect

Source: ChEMBL document CHEMBL3870317, “FtsZ inhibition and redox modulation with one chemical scaffold: Potential use of dihydroquinolines against mycobacteria” (Eur J Med Chem, 2016)
